Article PMC3806161, “Strychnos pseudoquina and Its Purified Compounds Present an Effective In Vitro Antileishmanial Activity” (Evidence-based Complementary and Alternative Medicine : eCAM, 2013)
Read-outs that look alike come from different tables or passages of the source.

How the values were obtained:
[1] = test system: stationary-phase promastigotes of L. amazonensis; assay: Antileishmanial activity: inhibition of promastigote viability (MTT); format: cell-based, Leishmania amazonensis
Method: Cell viability was assessed by measuring the cleavage of 2 mg/mL of MTT [3-(4.5-dimethylthiazol-2-yl)-2.5-diphenyl tetrazolium bromide] (Sigma). Absorbances were measured by using a multiwell scanning spectrophotometer (LABTRADE, model 660) at a wavelength of 570 nm. Amphotericin B (1 μM) was used as a positive control. The concentration of the products needed to inhibit 50% of the Leishmania viability (IC50) was determined by applying the sigmoidal regression of the concentration-response curves, using different concentrations of the compounds.

murine macrophages [2] = test system: murine macrophages
Method: (§1) Cell viability was assessed by the MTT assay, and amphotericin B was used as a control. The selectivity index (SI) of the products was calculated by determining the ratio between IC50 and CC50. The hemolytic activity was investigated by incubating the products, in the same concentrations used for cytotoxicity evaluation, with a 5% red blood cell (human O^+) suspension for 1 h at 37°C. Briefly, the erythrocyte suspension was centrifuged (1000 ×g for 10 min), and cell lysis was determined spectrophotometrically (570 nm), as described [24]. The absence of (blank) or 100% presence of hemolysis (positive control) was determined by replacing the products for an equal volume of PBS or distilled water, respectively. The results were determined by the percentage of hemolysis when compared with the negative and positive controls. Data shown are representative of four independent experiments, performed in triplicate, which presented similar results.

murine macrophages [3] = assay: Cytotoxicity assay on macrophages (MTT); settings: for SI, Selectivity Index (ratio between CC50 and IC50): murine macrophages vs L. amazonensis promastigotes
Method: as §1

[4] = test system: Leishmania amazonensis invasion of murine macrophages; assay: Inhibition of infection in phagocytic cells (pre-treated promastigotes); format: cell-based; settings: for reductions in infectivity of parasites after treatment: parasites preincubated 4 h at 24°C, versus about 87% infected macrophages with untreated parasites, concentration not given; for number of amastigotes per cell / Percentage of infected macrophages after treatment: 4 h at 24°C; for number of amastigotes per cell: untreated 8.4; for Percentage of infected macrophages after treatment: untreated 87.0
Method: The inhibitory effect of quercetin 3-O-methyl ether and strychnobiflavone on the Leishmania invasion of macrophages was evaluated using promastigotes of L. amazonensis. Parasites (1 × 10^6 cells) were preincubated with different concentrations of quercetin 3-O-methyl ether (0, 70, 140, or 280 μM) or strychnobiflavone (0, 40, 80, or 160 μM) for 4 h at 24°C. […] After incubation, parasites were washed three times with RPMI 1640 medium, quantified, and incubated for 24 h with murine macrophages, using a ratio of 10 parasites per 1 macrophage. After, cells were washed, set, and stained to determine the percentage of infected macrophages by counting 200 cells in triplicate.

[5] = test system: L. amazonensis in infected murine macrophages; assay: Treatment of infected macrophages; format: cell-based, Leishmania amazonensis; settings: for number of amastigotes per cell: untreated 8.4; for Percentage of infected macrophages after treatment: untreated 87.0
Method: Murine macrophages (5 × 10^5 cells) were plated on round glass coverslips inside the wells of a 24-well culture plate (Nunc) in an RPMI 1640 medium supplemented with 20% FBS, 2 mM L-glutamine, 200 U/mL penicillin, and 100 μg/mL streptomycin, at pH 7.4. After 24 h of incubation at 37°C in 5% CO2, stationary-phase promastigotes of L. amazonensis were added to the wells (5 × 10^6 cells), and the cultures were incubated for 24 h at 37°C in 5% CO2. A previous titration curve was performed to determine the minimum time incubation of parasites with the macrophages, in order to obtain the maximum of infection into the host cells (data not shown). Next, free parasites were removed by extensive washing with an RPMI 1640 medium, and infected macrophages were quantified and treated for 48 h with quercetin 3-O-methyl ether (0, 70, 140, or 280 μM) or strychnobiflavone (0, 40, 80 or 160 μM) for 48 h at […] in 5% CO2. Cells were washed in RPMI 1640 and incubated with 4% paraformaldehyde for 15 min, at which time they were treated with 70% ethanol in an ice bath for 4 h and again washed three times with sterile PBS. Amphotericin B was used as a control. The percentage of the inhibition of Leishmania intra-macrophage viability was determined by counting 200 cells in triplicate.

O+ human red blood cells = assay: Hemolytic activity; format: cell-based
Method: as §1

[6] = Cytotoxicity assay on macrophages (MTT); settings: BALB/c, mouse, murine macrophages
Method: as §1

[7] = Leishmania amazonensis, 48 h, stationary-phase promastigotes, 48 h at 24°C, MTT, read-out: IC50 (inhibitory concentration of 50% of promastigotes of L. amazonensis)
[8] = promastigotes pre-treated with 40 μM
[9] = promastigotes pre-treated with 80 μM
[10] = promastigotes pre-treated with 160 μM
[11] = infected macrophages treated with 40 μM for 48 h
[12] = infected macrophages treated with 80 μM for 48 h
[13] = infected macrophages treated with 160 μM for 48 h
[14] = promastigotes pre-treated with 70 μM
[15] = promastigotes pre-treated with 140 μM
[16] = promastigotes pre-treated with 280 μM
[17] = infected macrophages treated with 70 μM for 48 h
[18] = infected macrophages treated with 140 μM for 48 h
[19] = infected macrophages treated with 280 μM for 48 h

For `C[C@@H]1[C@H](O)[C@@H](C)/C=C/C=C/C=C/C=C/C=C/C=C/C=C/[C@H](O[C@@H]2O[C@H](C)[C@@H](O)[C@H](N)[C@@H]2O)C[C@@H]2O[C@](O)(C[C@@H](O)C[C@@H](O)[C@H](O)CC[C@@H](O)C[C@@H](O)CC(=O)O[C@H]1C)C[C@H](O)[C@H]2C(=O)O` [AmpB, amphotericin B, reference compound], the IC50 [1, 7] was 0.1 ± 0.13 µM, the “toxicity in murine macrophages (in words)” value (from here on “toxicity”) (murine macrophages [2]) was “highly cytotoxic” and the “SI, Selectivity Index (ratio between CC50 and IC50)” value (murine macrophages [3]) was 9.9.
In the case of `COc1c(-c2ccc(O)c(O)c2-c2c(O)cc(O)c3c(=O)c(OC)c(-c4ccc(O)c(O)c4)oc23)oc2cc(O)cc(O)c2c1=O` [Strychnobiflavone, strychnobiflavone], the “reductions in infectivity of parasites after treatment” value [4] is reported as about 72.6%, the “number of amastigotes per cell” value [4, 8] is reported as 3.0 and the “Percentage of infected macrophages after treatment” value (shortened to “Percentage of infected macrophages”) [4, 8] is reported as 53.0%. For the same molecule, the “number of amastigotes per cell” value [4, 9] was 2.2, the “Percentage of infected macrophages” value [4, 9] was 47.8% and the “number of amastigotes per cell” value [4, 10] was 1.2. For the same molecule, the “Percentage of infected macrophages” value [4, 10] was 23.8%, the IC50 ([1]; Leishmania amazonensis, 48 h, read-out: IC50 (inhibitory concentration of 50% of promastigotes of L. amazonensis), stationary-phase promastigotes, 48 h at 24°C, MTT) was 3.16 µM and the IC50 ([1]; stationary-phase promastigotes, 48 h at 24°C, MTT, read-out: IC50 (inhibitory concentration of 50% of promastigotes of L. amazonensis)) was 3.2 ± 0.2 µM. The “number of amastigotes per cell” value [5, 11] was 1.5, the “Percentage of infected macrophages” value [5, 11] was 37.9% and the “number of amastigotes per cell” value [5, 12] was 1.3. The “Percentage of infected macrophages” value [5, 12] was 26.3%, the “number of amastigotes per cell” value [5, 13] was 0.4 and the “Percentage of infected macrophages” value [5, 13] was 9.6%. For the same molecule, the “RBC50 (50% of human red blood cell lysis)” value (O+ human red blood cells; 5% human O+ red blood cell suspension, 1 h at 37°C) was 209.6 ± 2.5 µM, the “hemolytic activity / damage to human erythrocytes (in words)” value (O+ human red blood cells; O+ human red blood cells) was “no significant damage” and the CC50 at 48 h [6] was 125 ± 4.5 µM. The “toxicity” value (murine macrophages [3]; in vitro, after incubation with the products) was “no significant toxicity”, the “SI, Selectivity Index (ratio between CC50 and IC50)” value (murine macrophages [3]) was 39.6 and the “SI, Selectivity Index (ratio between CC50 and IC50)” value (murine macrophages [3]; listed as strychnobiflavone) was 39.55.
With `COc1c(-c2ccc(O)c(O)c2)oc2cc(O)cc(O)c2c1=O` [Quercetin 3-O-methyl ether, quercetin 3-O-methyl ether] the “reductions in infectivity of parasites after treatment” value [4] was about 47%, the “number of amastigotes per cell” value [4, 14] was 4.5 and the “Percentage of infected macrophages” value [4, 14] was 67.8%. The “number of amastigotes per cell” value [4, 15] was 3.9, the “Percentage of infected macrophages” value [4, 15] was 61.9% and the “number of amastigotes per cell” value [4, 16] was 2.4. The “Percentage of infected macrophages” value [4, 16] was 46.1%, the IC50 [1, 7] was 8.08 µM and the IC50 ([1]; stationary-phase promastigotes, 48 h at 24°C, MTT, listed as Quercetin 3-methyl ether, read-out: IC50 (inhibitory concentration of 50% of promastigotes of L. amazonensis)) was 8.1 ± 1.5 µM. The “toxicity” value (murine macrophages [2]) was “no significant toxicity”, the “number of amastigotes per cell” value [5, 17] was 5.6 and the “Percentage of infected macrophages” value [5, 17] was 72.4%. For the same molecule, the “number of amastigotes per cell” value [5, 18] was 4.4, the “Percentage of infected macrophages” value [5, 18] was 68.0% and the “number of amastigotes per cell” value [5, 19] was 1.7. The “Percentage of infected macrophages” value [5, 19] was 46.3%, the “hemolytic activity / damage to human erythrocytes (in words)” value (O+ human red blood cells) was “no significant damage” and the “RBC50 (50% of human red blood cell lysis)” value (O+ human red blood cells; human, 1 h) was 155.0 ± 33.2 µM. The “SI, Selectivity Index (ratio between CC50 and IC50)” value (murine macrophages [3]) was 24.62 and the “SI, Selectivity Index (ratio between CC50 and IC50)” value (murine macrophages [3]; listed as Quercetin 3-methyl ether) was 24.6.
